Laboratory results as given in patent US8592432B2, “Compounds and compositions as protein kinase inhibitors” (priority 2008, dated 2013).

Molecular target: ALK (Homo sapiens (Human), UniProt Q9UM73)
Test: ALK IC50 (Tables 1-4)
Type: biochemical
Method: Assays are incubated for 10 min at ambient temperature. […] Following washing (0.5% H3PO4), plates are counted in a liquid scintillation counter. IC50 values are calculated by linear regression analysis of the percentage inhibition.
Compounds of the present invention may be assessed for their ability to inhibit ALK using assays described below, as well as other assays known in the art.

ALK, sequence (Q9UM73 1116-1392): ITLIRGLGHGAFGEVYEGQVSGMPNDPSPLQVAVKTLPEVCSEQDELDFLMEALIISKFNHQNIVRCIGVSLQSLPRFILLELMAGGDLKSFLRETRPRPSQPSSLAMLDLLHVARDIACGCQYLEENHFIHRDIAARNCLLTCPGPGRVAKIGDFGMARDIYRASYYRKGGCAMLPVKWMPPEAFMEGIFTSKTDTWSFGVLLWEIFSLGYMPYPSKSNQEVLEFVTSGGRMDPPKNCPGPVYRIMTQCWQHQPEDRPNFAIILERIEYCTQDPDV

Question: How did the IC50 turn out when `Cc1cc(Nc2nc(Nc3ccccc3S(=O)(=O)C(C)C)c3c(C)n[nH]c3n2)c(OC(C)C)cc1C1CCN(C)CC1` [Compound 34, N6-(2-isopropoxy-5-methyl-4-(1-methylpiperidin-4-yl)phenyl)-N4-(2-(isoproplsulfonyl)phenyl)-3-methyl-1H-pyrazolo[3,4-d]pyrimidine-4,6-diamine] was run?
Answer: The IC50 was 20 nM.
